Assay results published in PMC12583774 (Nature Communications, 2025).

Target: SARS-CoV-2 NSP14 (Severe acute respiratory syndrome coronavirus 2, UniProt P0DTD1)
Assay type: binding

Row | Structure (SMILES) | Tm changes | Tm shift, maximum reached [°C]
1 | Nc1nc2c(ncn2[C@@H]2O[C@H](COP(=O)(O)OP(=O)(O)OP(=O)(O)OC[C@H]3O[C@@H](n4cnc5c(=O)[nH]c(N)nc54)[C@H](O)[C@@H]3O)[C@@H](O)[C@H]2O)c(=O)[nH]1 [GpppG, G(5′)ppp(5′)G RNA Cap Structure Analog] | negligible Tm changes | 
2 | Nc1ncnc2c1ncn2[C@@H]1O[C@H](CSCC[C@H](N)C(=O)O)[C@@H](O)[C@H]1O [SAH] |  | ≤ 10.0
3 | C[S+](CC[C@H](N)C(=O)[O-])C[C@H]1O[C@@H](n2cnc3c(N)ncnc32)[C@H](O)[C@@H]1O (stereo partly shown) [SAM, S-adenosylmethionine] | negligible Tm changes | 
4 | Cn1c[n+]([C@@H]2O[C@H](COP(=O)(O)OP(=O)([O-])OP(=O)(O)OC[C@H]3O[C@@H](n4cnc5c(=O)[nH]c(N)nc54)[C@H](O)[C@@H]3O)[C@@H](O)[C@H]2O)c2nc(N)[nH]c(=O)c21 [m7GpppG] | negligible Tm changes | 
